This is an account of results in US6967196B1, “Sulfonamide compounds and uses thereof” (Bristol-Myers Squibb Company, priority 1999, dated 2005).

The test system of the assay is amyloid β production in transfected H4 (human neuroglioma) cells stably expressing APP constructs. Description: In vitro cell-based assay of inhibitors of amyloid β production (ELISA). The procedure, abridged:
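Aβ secreted into the medium was read by sandwich ELISA (monoclonal capture for the Aβ C-terminus, polyclonal detection for the N-terminus) and calibrated on a standard curve. Before this, APP-expressing H4 cells were exposed to compound for ~16 h at an initial 10-100 μM, with actives then retested in dose-response.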
A general note: In an ELISA, binding on a coated surface is turned into a signal by an enzyme label.

[1] abbreviates: Homo sapiens, 16 h, transfected H4 cells stably expressing APP, approximately 16 hours incubation, amyloid β in medium by ELISA, read-out: ACTIVITY (IC50, inhibition of amyloid β production).
The mark [2] stands for this setting: transfected H4 cells stably expressing APP, approximately 16 hours incubation, amyloid β in medium by ELISA, read-out: ACTIVITY (IC50, inhibition of amyloid β production).
[3] abbreviates: transfected H4 cells stably expressing APP, approx. 16 h incubation, amyloid β in medium by ELISA, read-out: ACTIVITY (IC50, inhibition of amyloid β production).
Where [4] appears, read: Homo sapiens, 16 h, transfected H4 cells stably expressing APP constructs, approximately 16 hours incubation, amyloid β in medium by ELISA, read-out: ACTIVITY (IC50, inhibition of amyloid β production).
[5] abbreviates: transfected H4 cells stably expressing APP constructs, approximately 16 hours incubation, amyloid β in medium by ELISA, read-out: ACTIVITY (IC50, inhibition of amyloid β production).
Setting [6] is: Homo sapiens, 16 h, transfected H4 cells expressing APP, approximately 16 hours incubation, amyloid β in medium by ELISA, read-out: ACTIVITY (IC50, inhibition of amyloid β production).
Where [7] appears, read: transfected H4 cells stably expressing APP, approximately 16 hours incubation, amyloid β in medium by ELISA, Table B, read-out: ACTIVITY (IC50, inhibition of amyloid β production).
Where [8] appears, read: Homo sapiens, 16 h, transfected H4 cells stably expressing APP, approximately 16 hours incubation, amyloid β in medium by ELISA, Table B, read-out: ACTIVITY (IC50, inhibition of amyloid β production).

Counter-ions that a name gives are not always drawn. Like-named read-outs stand apart in the source and are kept apart here.

For the molecule `O=S(=O)(c1ccc(Cl)cc1)N(Cc1ccccc1OCCCN1CCc2ccccc2C1)c1ccccc1` [Example 999, 4-chloro-N-{2-[3-(3,4-dihydro-2(1H)-isoquinolinyl)propoxy]benzyl}-N-phenylbenzenesulfonamide], under setting [1], the IC50 is above 500 nM.

Regarding `O=S(=O)(c1ccc(Cl)cc1)N(Cc1ncccc1OCCCN1CCCCC1)c1cc(F)ccc1F` [Example 233, 4-Chloro-N-(2,5-difluorophenyl)-N-({3-[3-(1-piperidinyl)propoxy]-2-pyridinyl}methyl)benzenesulfonamide Hydrochloride], the IC50 (read-out: ACTIVITY (inhibitory concentration IC50, inhibition of amyloid β production)) was 25 to 50 nM.

Turning to “(2R, 3R)-2,4-bis[(4-methylbenzoyl)oxy]butanedioic acid compound with 4-chloro-N-(2,5-difluorophenyl)-N-((1R)-1-{2-[3-(1H-imidazol-1- [Example 1049]”, the IC50 under setting [2] was above 500 nM.

In the case of “isobutyl 3-[2-(1-{[(4-chlorophenyl)sulfonyl]-2,5-difluoroanilino}ethyl)phenoxy]propyl(methyl)carbamate [Example 677]”, the IC50 under setting [3] is 100 to 500 nM.

As for “(2E)-3-[2-({[(4-chlorophenyl)sulfonyl]anilino}methyl)phenyl]-N-methoxy-N-methyl-2-propenamide [Example 1034]”, the IC50 under setting [2] is above 500 nM.

As to `C[C@H](CCCS(=O)(=O)N(CCCn1ccnc1)CC1CC1)N(c1cc(Cl)ccc1CO)S(=O)(=O)c1ccc(Cl)cc1` [Example 1236, 4-chloro-N-[5-chloro-2-(hydroxymethyl)phenyl]-N-[4-[N-(cyclopropylmethyl)-N-[3-(1H-imidazol-1-yl)-propyl]aminosulfonyl]-1(R)-methylbutyl]benzenesulfonamide], the IC50 under setting [4] lay within 100 to 500 nM.

Turning to `COC(=O)C1SCCN1CC[C@@H](C)N(c1cc(Cl)ccc1Cl)S(=O)(=O)c1ccc(Cl)cc1` (stereo partly drawn) [Example 1133, 4-chloro-N-(2,5-dichlorophenyl)-N-[3-(2-methoxycarbonyl-3-thiazolidinyl)-1(R)-methylpropyl]benzenesulfonamide], under setting [5], the IC50 was in the range of 50 to 100 nM.

`C[C@H](C(=O)NC1CCCC1)C(c1cc(Cl)ccc1F)S(=O)(=O)c1ccc(Cl)cc1` (stereo partly shown) [Example 1307]: under setting [6], the IC50 lay within 100 to 500 nM.

Regarding `COc1ccc(CNC(=O)[C@@H](C)N(c2cc(Cl)ccc2F)S(=O)(=O)c2ccc(Cl)cc2)cc1` [Example 1361], under setting [6], the IC50 is above 500 nM.

For `CCN(CC)S(=O)(=O)CCC[C@@H](C)N(c1cc(Cl)ccc1Cl)S(=O)(=O)c1ccc(Cl)cc1` [Example 1213, 4-chloro-N-[2,5-dichlorophenyl]-N-[4-[(diethylamino)sulfonyl]-1(R)-methylbutyl]benzenesulfonamide], under setting [4], the IC50 is at most 25 nM.

In the case of “ethyl 3-(2-{[(phenylsulfonyl)anilino]methyl}phenyl)propanoate [Example 995]”, under setting [2], the IC50 is above 500 nM.

As for `C[C@H](CCCNC(=O)[C@@H](O)c1ccccc1)N(c1cc(Cl)ccc1Cl)S(=O)(=O)c1ccc(Cl)cc1` [Example 1124], under setting [5], the IC50 lay in the range of 50 to 100 nM.

Regarding “S-{3-[2-({[(4-chlorophenyl)sulfonyl]-2,5-difluoroanilino}methyl)phenoxy]propyl} ethanethioate [Example 1014]”, the IC50 under setting [2] was above 500 nM.

Take `O=S(=O)(c1ccc(Cl)cc1)N(Cc1ccccc1)Cc1ccccc1OCCCN1CCCCC1` [Example 886, N-benzyl-4-chloro-N-{2-[3-(1-piperidinyl)propoxy]benzyl}benzenesulfonamide hydrochloride]: under setting [1], the IC50 is above 500 nM.

For the molecule `CC[S+]([O-])CCC[C@@H](C)N(c1cc(Cl)ccc1CO)S(=O)(=O)c1ccc(Cl)cc1` (stereo partly drawn) [Example 1222, 4-chloro-N-[5-chloro-2-(hydroxymethyl)phenyl]-N-[1(R)-methyl-(4-ethylsulfinyl)butyl]benzenesulfonamide], the IC50 under setting [5] is at most 25 nM.

Regarding `COC(=O)[C@@H](N)CS(=O)(=O)CCCc1cc(F)ccc1[C@@H](C)N(c1cc(F)ccc1F)S(=O)(=O)c1ccc(Cl)cc1` [Example 487, Methyl (2R)-2-amino-3-({3-[2-((1R)-1-{[(4-chlorophenyl)sulfonyl]-2,5-difluoroanilino}ethyl)-5-fluorophenyl]propyl}sulfonyl)propanoate Hydrochloride], the IC50 under setting [7] was 100 to 500 nM.

With “(R)-4-Chloro-N-(2,5-difluorophenyl)-N-[1-[4-fluoro-2-[1-(1,1-dioxo-2-methyl-4-thiomorpholinyl)butanoyl]phenyl]ethyl]benzenesulfonamide [Example 1277]”, the IC50 under setting [5] is at most 25 nM.

Regarding `O=S(=O)(c1ccc(Cl)cc1)N(Cc1ccccc1C#CCn1ccnc1)c1cc(F)ccc1F` [Example 1051, 4-chloro-N-(2,5-difluorophenyl)-N-{2-[3-(1H-imidazol-1-yl)-1-propynyl]benzyl}benzenesulfonamide hydrochloride], the IC50 under setting [1] was above 500 nM.

In the case of `C[C@H](c1ccccc1CCC(=O)Nc1ccccc1)N(c1cc(F)ccc1F)S(=O)(=O)c1ccc(Cl)cc1` [Example 403, 3-[2-((1R)-1-{[(4-chlorophenyl)sulfonyl]-2,5-difluoroanilino}ethyl)phenyl]-N-phenylpropanamide], the IC50 under setting [8] lay within 50 to 100 nM.

In the case of `O=S1(=O)CCN(CCCOc2ccccc2CN(c2ccccc2)S(=O)(=O)c2ccc(Cl)cc2)CC1` [Example 313, 4-Chloro-N-{2-[3-(1,1-dioxido-4-thiomorpholinyl)propoxy]benzyl}-N-phenylbenzenesulfonamide Hydrochloride], under “transfected H4 cells stably expressing APP, approximately 16 hours incubation, amyloid β in medium by ELISA, Table B, Hydrochloride, read-out: ACTIVITY (IC50, inhibition of amyloid β production)”, the IC50 fell in the range of 50 to 100 nM.

Consider `C#Cc1ccccc1CN(c1ccccc1)S(=O)(=O)c1ccc(Cl)cc1` [Example 991, 4-chloro-N-(2-ethynylbenzyl)-N-phenylbenzenesulfonamide], for which the IC50 under setting [1] is above 500 nM.

As for `O=C(c1ccc2c(c1)OCO2)N1CCCCC1CCOc1ccccc1CN(c1cc(F)ccc1F)S(=O)(=O)c1ccc(Cl)cc1` (stereo not shown) [Example 921, N-(2-{2-[1-(1,3-benzodioxol-5-ylcarbonyl)-2-piperidinyl]ethoxy}benzyl)-4-chloro-N-(2,5-difluorophenyl)benzenesulfonamide], the IC50 under setting [1] was above 500 nM.

Consider `O=C(c1ccccc1Br)N1CCCCC1CCOc1ccccc1CN(c1cc(F)ccc1F)S(=O)(=O)c1ccc(Cl)cc1` (stereo not shown) [Example 942, N-(2-{2-[1-(2-bromobenzoyl)-2-piperidinyl]ethoxy}benzyl)-4-chloro-N-(2,5-difluorophenyl)benzenesulfonamide], for which, under setting [1], the IC50 is above 500 nM.

As to `O=S(=O)(c1ccc(Cl)cc1)N(Cc1ccccc1OCCCN1CCCCC1)Cc1c(F)c(F)c(F)c(F)c1F` [Example 974, 4-chloro-N-(2,3,4,5,6-pentafluorobenzyl)-N-{2-[3-(1-piperidinyl)propoxy]benzyl}benzenesulfonamide hydrochloride], the IC50 under setting [1] is above 500 nM.

`C[C@H](CCCS(=O)(=O)Cl)N(c1cc(Cl)ccc1Cl)S(=O)(=O)c1ccc(Cl)cc1` [Example 18]: the IC50 (Table B, transfected H4 cells stably expressing APP, approximately 16 hours incubation, amyloid β in medium by ELISA, read-out: ACTIVITY (inhibitory concentration IC50, inhibition of amyloid β production)) was at most 25 nM.

As to `CC(c1ccccc1OCCCN(C)C(=O)C12CCC(C)(C(=O)O1)C2(C)C)N(c1cc(F)ccc1F)S(=O)(=O)c1ccc(Cl)cc1` (stereo not shown) [Example 387, N-{3-[2-(1-{[(4-chlorophenyl)sulfonyl]-2,5-difluoroanilino}ethyl)phenoxy]propyl}-N,4,7,7-tetramethyl-3-oxo-2-oxabicyclo[2.2.1]heptane-1-carboxamide], the IC50 under setting [8] was 50 to 100 nM.

In the case of `O=S(=O)(c1ccc(Cl)cc1)N(Cc1ccccc1C#CCN1CCCCC1)c1cc(F)ccc1F` [Example 711, 4-chloro-N-(2,5-difluorophenyl)-N-{2-[3-(1-piperidinyl)-1-propynyl]benzyl}benzenesulfonamide hydrochloride], the IC50 (Homo sapiens, 16 h, transfected H4 cells stably expressing APP, approx. 16 h incubation, amyloid β in medium by ELISA, read-out: ACTIVITY (IC50, inhibition of amyloid β production)) was 100 to 500 nM.

Turning to “N-{2-[2-(1-{[(4-chlorophenyl)sulfonyl]-2,5-difluoroanilino}ethyl)phenoxy]ethyl}-N-ethyl-1-adamantanecarboxamide [Example 769]”, under setting [3], the IC50 fell in the range of 100 to 500 nM.

Consider `CSC1CCN(CCC[C@@H](C)N(c2cc(Cl)ccc2Cl)S(=O)(=O)c2ccc(Cl)cc2)C1` (stereo partly drawn) [Example 1134, 4-chloro-N-(2,5-dichlorophenyl)-N-[4-[(3-methylthio)-1-pyrrolidinyl]-1(R)-methylbutyl]benzenesulfonamide], for which, under setting [5], the IC50 fell in the range of 100 to 500 nM.

As for `O=S(=O)(c1ccc(Cl)cc1)N(Cc1ccccc1OCCCN1CCC(Cc2ccccc2)CC1)c1ccccc1` [Example 290, N-{2-[3-(4-benzyl-1-piperidinyl)propoxy]benzyl}-4-chloro-N-phenylbenzenesulfonamide Hydrochloride], the IC50 under setting [7] lay within 25 to 50 nM.

Regarding `C[C@H](C(=O)NC1CCCc2ccccc21)N(c1cc(Cl)ccc1F)S(=O)(=O)c1ccc(Cl)cc1` (stereo partly shown) [Example 1309], the IC50 under setting [6] is above 500 nM.
